Assay results: patent US6949533B2, “6,7-Oxygenated steroids and uses related thereto” (Inflazyme Pharmaceuticals Ltd., priority 1996, dated 2005)

Columns and labels:
rabbit platelets = assay: PAF-induced aggregation of rabbit platelets; type: cell-based; details: Oryctolagus cuniculus, Platelet; 80 μM compound, 5 min preincubation; PAF-stimulated rabbit platelets (title: 0.1 nM PAF); read-out: % Inhibition at 80 μM
Description: Within the present invention, it was discovered that the polyhydroxylated steroids as well as intermediates described in previous sections inhibited the aggregation of platelets caused by platelet activating factor (PAF). PAF is a local mediator of thrombosis and prevention of the formation of blood clots has direct implication in the treatment of thrombosis and associated cardiovascular diseases. The assay system used to evaluate the ability of compounds to inhibit the aggregation of platelets in response to exogenous stimuli is indicative of anti-thrombotic or thrombolytic activity.
Platelets were isolated from rabbit blood and prepared at a density of 2.4×10^8 cells/ml in Tyrodes buffer (pH 7.2) containing Ca^2+. Platelets were incubated with each compound for 5 min at 37° C. prior to stimulation. Platelets were stimulated with 1 nM platelet activating factor (PAF; EC75) in the presence of each of the compounds and aggregation was monitored for 5 min. Compounds were solubilized in dimethylsulfoxide (DMSO) and aggregation was measured as a percentage of the response to 1 nM PAF obtained in the presence of the appropriate concentration of DMSO. The degree of inhibition caused by each sample was calculated using the control response in the presence of DMSO equal to 100%.

[1] = test system: passively sensitized rat mast cells (RBL-2H3); assay: antigen-induced release of hexosaminidase from RBL-2H3 cells; type: cell-based; details: Rattus norvegicus, RBL-2H3, 25 μM compound; antigen-induced hexosaminidase release; read-out: Percentage Inhibition (mean) RBL-2H3 Cells
Experimental: The anti-allergic effects of various polyhydroxylated steroids of the present invention were evaluated by measuring their effect on antigen-induced secretion of hexosaminidase from a passively sensitized rat mast cell line (RBL-2H3) and a murine mast cell line (MC/9). The ability of agents to inhibit the release of mast cell granule contents, e.g., histamine and hexosaminidase, is indicative of anti-allergy and/or anti-asthma activity.
Hexosaminidase is released from the mast cell granule along with histamine and other mediators during antigen challenge. RBL-2H3 and MC/9 cells were grown in culture and passively sensitized to dinitrophenol (DNP) using anti-human-DNP (IgE). Cells were incubated with each compound (25 μM) for 1 hour at 37° C. and then stimulated with 0.1 mg/ml DNP-HSA (antigen) for 15 min. Aliquots of the supernatant were removed and used to measure the amount of hexosaminidase released during challenge with the antigen. The amount of hexosaminidase present in the supernatant was determined calorimetrically by monitoring the enzymatic metabolism of p-nitrophenyl-N-acetyl-β-D-glucosaminide (p-NAG) over a period of 1 hour at 410 nm. The effect of each compound was determined as a percentage of the antigen-induced response (minus background release) obtained in the presence of DMSO alone, as set forth in Tables 2 and 3. These values were used to determine the degrees of inhibition of antigen-induced hexosaminidase release from the cells.

[2] = test system: Ascaris suum sensitized sheep; assay: allergic sheep model of asthma; type: in vivo
Experimental: The model is conscious, where the animals are breathing spontaneously, allowing measurement of airways bronchoconstriction and acute airway hyperresponsiveness.
Sheep which were naturally sensitized to Ascaris suum (30-40 Kg) were intubated with an endotracheal tube and a balloon catheter, positioned in the lower esophagus. Pleural pressure was estimated with the esophageal catheter, while later pressure was measured with a side-hole catheter advanced through and positioned distal to the tip of the endotracheal tube. Transpulmonary pressure differences between the trachea and pleural pressures were measured with a differential pressure transducer catheter system.
The proximal end of the endotracheal tube was connected to a Fleisch pneumotachograph in order to measure flow changes. Pulmonary resistance (RL) was calculated from pressure measurements of transpulmonary pressure, respiratory volume (from digital integration of the flow signal) and flow by the mid-flow technique. SRL was calculated as RL Vtg (Vtg=thoracic gas volume).
Aerosols generated using a disposable nebulizer, were directed into a T-piece connected to a Harvard respirator and the tracheal tube in series. The aerosol delivery was controlled using a dosimeter system, consisting of a solenoid valve and compressed air (20 psi) activated at the start of each inspiratory cycle. Aerosols were delivered in tidal volumes of 500 ml at […].
Selected compounds from the invention were dissolved as a stock solution in DMSO and diluted in saline. Animals received either, 400 μg/Kg of compound 30 min prior to challenge and 4 hours after challenge, or 400 μg/Kg of compound for 4 days with the last dose 2 hours before challenge. Ascaris suum extract was diluted in phosphate buffered saline to a concentration of 82000 protein nitrogen units/ml and delivered by aerosol over 20 min. Carbachol was dissolved in PBS to concentrations of 0.25, 0.5 1.0, 2.0, 4.0% wt/vol. Each animal served as its own control throughout the study.
Specific lung resistance (SRL) was measured every 60 min for 8 hours after antigen challenge. Airways hyperresponsiveness to carbachol was measured 24 hours after the initial challenge.

NF-κB = NF-κB gel shift binding assay in TPA-stimulated RBL-2H3 cells; type: cell-based; details: Rattus norvegicus, compound 1 μM, 2 hours preincubation, read-out: Percent Inhibition of Response to TPA (0.1 μM)
[3] = 400 μg/kg/day for 4 days, inhalation, Baseline

## C/C=C1/CCC2C3C(CC[C@]12C)[C@@]1(C)CC[C@@H](O)CC1[C@@H](O)[C@@H]3O (stereo partly drawn) [Compound 330, 3α,6α,7β-trihydroxy-17(20)-pregnene]
Rabbit platelets
  inhibition at 80 µM: 20.9%
[1]
  inhibition at 25 µM: 59%
[2]; 400 μg/kg inhalation 30 min prior to and 4 hours after challenge, Baseline
  PC400 Hyperresponsiveness to carbachol: 26.01 ± 3.06 Breath Units
[2]; 400 μg/kg inhalation 30 min prior to and 4 hours after challenge, Post-Challenge (24 hours)
  PC400 Hyperresponsiveness to carbachol: 22.79 ± 6.11 Breath Units
[2]; 400 μg/kg inhalation 30 min prior to and 4 hrs after challenge, 1 hr
  Specific Lung Resistance: 117 ± 11 % Baseline
[2]; 400 μg/kg inhalation 30 min prior to and 4 hrs after challenge, 2 hr
  Specific Lung Resistance: 49 ± 11 % Baseline
[2]; 400 μg/kg inhalation 30 min prior to and 4 hrs after challenge, 3 hr
  Specific Lung Resistance: 32 ± 6 % Baseline
[2]; 400 μg/kg inhalation 30 min prior to and 4 hrs after challenge, 4 hr
  Specific Lung Resistance: 20 ± 6 % Baseline
[2]; 400 μg/kg inhalation 30 min prior to and 4 hrs after challenge, 5 hr
  Specific Lung Resistance: 14 ± 4 % Baseline
[2]; 400 μg/kg inhalation 30 min prior to and 4 hrs after challenge, 6 hr
  Specific Lung Resistance: 14 ± 5 % Baseline
[2]; 400 μg/kg inhalation 30 min prior to and 4 hrs after challenge, 6.5 hr
  Specific Lung Resistance: 18 ± 6 % Baseline
[2]; 400 μg/kg inhalation 30 min prior to and 4 hrs after challenge, 7 hr
  Specific Lung Resistance: 10 ± 2 % Baseline
[2]; 400 μg/kg inhalation 30 min prior to and 4 hrs after challenge, 7.5 hr
  Specific Lung Resistance: 17 ± 8 % Baseline
[2]; 400 μg/kg inhalation 30 min prior to and 4 hrs after challenge, 8 hr
  Specific Lung Resistance: 5 ± 3 % Baseline
[2]; 400 μg/kg inhalation 30 min prior to and 4 hrs after challenge, Baseline
  Specific Lung Resistance: 2 ± 5 % Baseline
[2]; 400 μg/kg inhalation 30 min prior to and 4 hrs after challenge, Challenge (0)
  Specific Lung Resistance: 268 ± 35 % Baseline
[2]; 400 μg/kg inhalation 30 min prior to and 4 hrs after challenge, −0.5 hr
  Specific Lung Resistance: 0 ± 4 % Baseline
[2]; 400 μg/kg/day for 4 days, inhalation, 1 hr
  Specific Lung Resistance: 34.00 ± 10.75 % Baseline
[2]; 400 μg/kg/day for 4 days, inhalation, 2 hr
  Specific Lung Resistance: 11.50 ± 6.18 % Baseline
[2]; 400 μg/kg/day for 4 days, inhalation, 3 hr
  Specific Lung Resistance: −15.00 ± 37.67 % Baseline
[2]; 400 μg/kg/day for 4 days, inhalation, 4 hr
  Specific Lung Resistance: 4.00 ± 1.78 % Baseline
[2]; 400 μg/kg/day for 4 days, inhalation, 5 hr
  Specific Lung Resistance: −4.50 ± 4.17 % Baseline
[2]; 400 μg/kg/day for 4 days, inhalation, 6 hr
  Specific Lung Resistance: 7.75 ± 9.75 % Baseline
[2]; 400 μg/kg/day for 4 days, inhalation, 6.5 hr
  Specific Lung Resistance: 5.50 ± 4.87 % Baseline
[2]; 400 μg/kg/day for 4 days, inhalation, 7 hr
  Specific Lung Resistance: 10.75 ± 4.91 % Baseline
[2]; 400 μg/kg/day for 4 days, inhalation, 7.5 hr
  Specific Lung Resistance: 4.00 ± 2.35 % Baseline
[2]; 400 μg/kg/day for 4 days, inhalation, 8 hr
  Specific Lung Resistance: 3.25 ± 4.73 % Baseline
[2]; [3]
  PC400 Hyperresponsiveness to carbachol: 21.26 ± 2.75 Breath Units
  Specific Lung Resistance: 5.25 ± 4.50 % Baseline
[2]; 400 μg/kg/day for 4 days, inhalation, Challenge (0)
  Specific Lung Resistance: 126.00 ± 19.11 % Baseline
[2]; 400 μg/kg/day for 4 days, inhalation, Post-Challenge (24 hours)
  PC400 Hyperresponsiveness to carbachol: 21.21 ± 3.10 Breath Units
[2]; 400 μg/kg/day for 4 days, inhalation, −0.5 hr
  Specific Lung Resistance: −3.75 ± 4.29 % Baseline
NF-κB
  inhibition at 1 µM: 66%
